Source: PubChem BioAssay (NCI)
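The concentration for 50% growth inhibition is given as GI50. TGI denotes the concentration required for complete inhibition of growth.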

How the values were obtained:
Experiment in all cases: NCI tumour cell line growth inhibition, 384-well format
[1] = test system: 786-0 renal
[2] = test system: A498 renal
[3] = test system: A549 NSCLC
[4] = test system: ACHN renal
[5] = test system: BT-549 breast
[6] = test system: CAKI-1 renal
[7] = test system: COLO 205 colon
[8] = test system: DU-145 prostate
[9] = test system: HCT-116 colon
[10] = test system: HCT-15 colon
[11] = test system: HOP-62 NSCLC
[12] = test system: HS 578T breast
[13] = test system: HT29 colon
[14] = test system: IGROV1 ovarian
[15] = test system: K-562 leukemia
[16] = test system: KM12 colon
[17] = test system: LOX IMVI melanoma
[18] = test system: M14 melanoma
[19] = test system: MCF7 breast
[20] = test system: MDA-MB-231 breast
[21] = test system: MDA-MB-435 melanoma
[22] = test system: MDA-MB-468 breast
[23] = test system: MOLT-4 leukemia
[24] = test system: NCI-H23 lung
[25] = test system: NCI-H322M lung
[26] = test system: NCI-H460 NSCLC
[27] = test system: NCI/ADR-RES ovarian
[28] = test system: OVCAR-3 ovarian
[29] = test system: OVCAR-4 ovarian
[30] = test system: OVCAR-8 ovarian
[31] = test system: PC-3 prostate
[32] = test system: RPMI-8226 leukemia
[33] = test system: RXF 393 renal
[34] = test system: SF-268 CNS
[35] = test system: SF-295 CNS
[36] = test system: SF-539 CNS
[37] = test system: SK-MEL-28 melanoma
[38] = test system: SK-MEL-5 melanoma
[39] = test system: SK-OV-3 ovarian
[40] = test system: SN12C renal
[41] = test system: SNB-75 CNS
[42] = test system: SR leukemia
[43] = test system: SW-620 colon
[44] = test system: TK-10 renal
[45] = test system: U251 glioblastoma
[46] = test system: UACC-257 melanoma
[47] = test system: UO-31 renal

SMILES: Cc1cc(C)c(CNC(=O)c2cc(-c3ccc(CN4CCOCC4)cc3)cc3c2cnn3C2CCCC2)c(=O)[nH]1
- GI50 [1]: 5.82 µM
- TGI [1]: 16.9 µM
- GI50 [2]: 3.92 µM
- TGI [2]: 15.4 µM
- GI50 [3]: 6.65 µM
- TGI [3]: 17.7 µM
- GI50 [4]: 10.3 µM
- TGI [4]: 23.9 µM
- GI50 [5]: 8.98 µM
- TGI [5]: 22.1 µM
- GI50 [6]: 9.04 µM
- TGI [6]: 22.2 µM
- GI50 [7]: 8.25 µM
- TGI [7]: 20.5 µM
- GI50 [8]: 13.5 µM
- TGI [8]: 27.6 µM
- GI50 [9]: 7.13 µM
- TGI [9]: 19.5 µM
- GI50 [10]: 3.03 µM
- TGI [10]: 11.6 µM
- GI50 [11]: 6.39 µM
- TGI [11]: 17.4 µM
- GI50 [12]: 2.92 µM
- TGI [12]: 7.44 µM
- GI50 [13]: 2.3 µM
- TGI [13]: 5.14 µM
- GI50 [14]: 1.02 µM
- TGI [14]: 25 µM
- GI50 [15]: 4.84 µM
- TGI [15]: 16.5 µM
- GI50 [16]: 8.88 µM
- TGI [16]: 21.7 µM
- GI50 [17]: 7.45 µM
- TGI [17]: 20.7 µM
- GI50 [18]: 6.87 µM
- TGI [18]: 17.6 µM
- GI50 [19]: 6.19 µM
- TGI [19]: 17.8 µM
- GI50 [20]: 8.35 µM
- TGI [20]: 21.4 µM
- GI50 [21]: 12 µM
- TGI [21]: 25.3 µM
- GI50 [22]: 0.0189 µM
- TGI [22]: 0.0459 µM
- GI50 [23]: 3.02 µM
- TGI [23]: 7.94 µM
- GI50 [24]: 14.3 µM
- TGI [24]: 27.5 µM
- GI50 [25]: 12.1 µM
- TGI [25]: 24.8 µM
- GI50 [26]: 7.72 µM
- TGI [26]: 20.5 µM
- GI50 [27]: 11.6 µM
- TGI [27]: 24 µM
- GI50 [28]: 4.83 µM
- TGI [28]: 17.5 µM
- GI50 [29]: 12.9 µM
- TGI [29]: 25.8 µM
- GI50 [30]: 11 µM
- TGI [30]: 23.3 µM
- GI50 [31]: 8.37 µM
- TGI [31]: 20.8 µM
- GI50 [32]: 2.11 µM
- TGI [32]: 6.54 µM
- GI50 [33]: 5.49 µM
- TGI [33]: 15.8 µM
- GI50 [34]: 6.37 µM
- TGI [34]: 13.6 µM
- GI50 [35]: 12 µM
- TGI [35]: 24.6 µM
- GI50 [36]: 6.86 µM
- TGI [36]: 19.8 µM
- GI50 [37]: 9.62 µM
- TGI [37]: 21.9 µM
- GI50 [38]: 5.47 µM
- TGI [38]: 13.9 µM
- GI50 [39]: 13.4 µM
- TGI [39]: 26.4 µM
- GI50 [40]: 12.3 µM
- TGI [40]: 24.9 µM
- GI50 [41]: 7.97 µM
- TGI [41]: 21.2 µM
- GI50 [42]: 2.41 µM
- TGI [42]: 5.85 µM
- GI50 [43]: 13.2 µM
- TGI [43]: 26.3 µM
- GI50 [44]: 0.968 µM
- TGI [44]: 21.9 µM
- GI50 [45]: 7.69 µM
- TGI [45]: 20.2 µM
- GI50 [46]: 2.23 µM
- TGI [46]: 4.96 µM
- GI50 [47]: 5.87 µM
- TGI [47]: 20.6 µM
